Legend:
Molt/4F dCyd kinase = target: T1, Molt/4F dCyd kinase (Homo sapiens, UniProt P27707); assay: Inhibition of dCyd kinase (Lineweaver-Burk); assay type: biochemical
T1 construct: endogenous in cells; host or cells: Molt/4F cells (sonicated extract, 30-70% ammonium sulfate fraction, dialyzed)
Experimental: ddUrd and the 3′-fluoro- and 3′-azido-substituted pyrimidine 2′,3′-dideoxynucleoside analogues were evaluated for their inhibitory effect against dThd and dCyd kinase.
dThd kinase and dCyd kinase were prepared from exponen tially growing Molt/4F cells, which were first washed (2x) with phosphate-buffered saline at 4° and then homogenized by sonication. The suspensions were clarified by centrifugation at 25,000-27,000 x g for 30 min. The 30-70% (NH₄)₂SO₄ precipitate of the supernatant was resuspended in buffer containing 10 uM potassium phosphate, pH 7.5, 10 mM β-mercaptoethanol and 0.1 M KCl, dialyzed against the same buffer, and used for the dThd kinase and the dCyd kinase assays. In these experiments, (2-¹⁴C)dThd and (U-¹⁴C)dCyd served as the radiolabelled substrates. The apparent Km and Ki values were derived from Lineweaver-Burk plots, using a linear regression analysis program. The assay procedures have been described in detail (J. Balzarini et al, (1983) and J. Balzarini et al, Biochem. Pharmacol. 31, 3673-3682 (1982)).

C3H cells = assay: Cytotoxicity for C3H cells (alteration of normal cell morphology); assay type: cell-based, mouse; conditions: alteration of normal cell morphology, C3H cells
[1] = target: T2, bacterial thymidine phosphorylase (Escherichia coli, UniProt P07650); assay: Phosphorolytic cleavage by dThd phosphorylase; assay type: biochemical; conditions: for Initial velocity of phosphorolysis: 25°C, 0.1 M sodium phosphate buffer, pH 7.0, N.D. = not detectable with 25 units of enzyme
T2 construct: purchased Sigma Chemical Co., St. Louis, MO
Experimental: Phosphorolytic cleavage of the test compounds was assessed using purified bacterial dThd phosphorylase (Sigma Chemical Co., St. Louis, MO) with the aid of a Beckman spectrophotometer UV/Vis 5200; the absorbance change during the enzyme reaction was continuously monitored at 25°C at the wavelength where the difference of absorption between the nucleoside and its free base was maximal. The reaction mixtures for all the assays consisted of enzyme and non-satura ting concentrations of nucleoside in 0.1 M sodium phosphate buffer, pH 7.0. The initial velocity of phosphorolysis was expressed as nmol/min/enzyme unit.

[2] = test system: Moloney murine sarcoma virus (MSV); assay: Inhibition of transformation of C3H cells by MSV; assay type: cell-based
Experimental: Moloney murine sarcoma virus (MSV) was prepared from tumors induced by in vivo infection of 10 day-old NMRI mice according to the procedure described by De Clercq et al (Proc. Soc. Exp. Biol. Med. 137, 590-594 (1971)).
ddUrd and the substituted pymiridine 2′,3′-dideoxynucleoside analogues were examined for their inhibitory effect on the transformation of mouse embryo C3H fibroblasts by Moloney murine sarcoma virus (MSV).
C3H cells were seeded at 20,000 cells per ml into wells of Costar Tissue Culture Cluster plates (48 wells per plate) and grown to confluency. Cell cultures were then infected by 150 foci-forming units of MSV during 90 min, whereafter the culture medium was replaced by 1 ml fresh medium containing different concentrations of the test compound. After 6 days, the transformation of the cell cultures was examined microscopically.

HIV [3] = conditions: ATH8 T-lymphocyte cell line; cited from earlier work
HIV [4] = conditions: MT4 lymphocytes; cited from earlier work

T1 sequence (P27707 whole entry): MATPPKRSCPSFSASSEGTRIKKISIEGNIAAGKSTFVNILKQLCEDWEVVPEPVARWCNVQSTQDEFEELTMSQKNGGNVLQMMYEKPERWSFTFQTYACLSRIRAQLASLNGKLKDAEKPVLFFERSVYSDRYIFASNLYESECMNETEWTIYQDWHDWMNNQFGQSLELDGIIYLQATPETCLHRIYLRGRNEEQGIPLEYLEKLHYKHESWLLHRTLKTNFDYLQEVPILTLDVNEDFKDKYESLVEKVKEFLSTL
T2 sequence (P07650 whole entry): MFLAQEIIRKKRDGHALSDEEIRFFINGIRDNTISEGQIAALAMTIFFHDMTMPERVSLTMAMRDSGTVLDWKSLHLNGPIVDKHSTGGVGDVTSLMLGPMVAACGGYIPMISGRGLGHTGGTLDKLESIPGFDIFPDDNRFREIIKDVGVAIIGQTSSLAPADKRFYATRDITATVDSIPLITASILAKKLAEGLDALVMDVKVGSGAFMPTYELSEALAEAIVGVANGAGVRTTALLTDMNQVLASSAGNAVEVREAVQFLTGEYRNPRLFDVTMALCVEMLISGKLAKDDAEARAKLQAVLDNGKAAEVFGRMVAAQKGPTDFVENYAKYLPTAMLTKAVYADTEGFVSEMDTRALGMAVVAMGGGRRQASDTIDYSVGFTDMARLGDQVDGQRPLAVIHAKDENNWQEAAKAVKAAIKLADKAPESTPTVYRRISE

## [N-]=[N+]=N[C@H]1C[C@H](n2ccc(N)nc2=O)O[C@@H]1CO [AzddCyd, 3′-Azido-2′,3′-dideoxycytidine]
Molt/4F dCyd kinase; Km 5.2 to 6.4 µM
  Ki/Km: 58
Molt/4F dCyd kinase; substrate (U-14C)dCyd
  Ki: 354 µM
Molt/4F dCyd kinase; with respect to dCyd
  Type of inhibition: competitive
C3H cells
  MSV-induced cyto-pathogenicity CD50: >400 µM
[1]; purified bacterial dThd phosphorylase
  susceptibility to phosphorolysis by dThd phosphorylase (in words): totally resistant
[2]; Moloney murine sarcoma virus, 144 h, 50% reduction of transformation of C3H cells by MSV, 6 days, read-out: MSV-induced cyto-pathogenicity ED50
  EC50: 70 µM
[2]; Selectivity index or ratio of CD50 to ED50, C3H cells
  MSV-induced cyto-pathogenicity S.I.: > 5.7
HIV [3]
  anti-retroviral effect compared with ddCyd: much less effective than ddCyd

## Cc1cn([C@H]2C[C@H](N=[N+]=[N-])[C@@H](CO)O2)c(=O)[nH]c1=O [AzddThd, 3′-azido-2′,3′-dideoxythymidine]
HIV [4]
  concentration that protects MT4 cells against HIV: 0.02 µM

## Cc1cn([C@H]2C=C[C@@H](CO)O2)c(=O)[nH]c1=O [2′,3′-didehydro-2′,3′-dideoxythymidine]
HIV [4]
  concentration that protects MT4 cells against HIV: 0,04 µM

## O=c1ccn([C@H]2C[C@H](O)[C@@H](CO)O2)c(=O)[nH]1 [dUrd]
[1]
  Initial velocity of phosphorolysis: 361 nmol/min/unit

## CCc1cn([C@H]2C[C@H](O)[C@@H](CO)O2)c(=O)[nH]c1=O [dEtUrd]
[1]
  Initial velocity of phosphorolysis: 0.893 nmol/min/unit

## Cc1cn([C@H]2CC[C@@H](CO)O2)c(=O)[nH]c1=O [2′,3′-dideoxythymidine]
HIV [4]
  concentration that protects MT4 cells against HIV: 1 µM
